# In patent publication US8557836B2 (priority 2008, dated 2013):
# Biological target: full length Udorn AM2 protein (Influenza A virus, UniProt P0DOF5)
# Experiment: cell-based
# Format: cell-based, influenza virus A/Udorn/72
# Conditions: 100 μM
# Sequence of full length Udorn AM2 protein (P0DOF5 whole entry, looked up): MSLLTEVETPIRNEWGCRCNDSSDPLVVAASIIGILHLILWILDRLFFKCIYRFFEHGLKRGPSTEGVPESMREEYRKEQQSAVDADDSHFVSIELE
row,SMILES,inhibition of AM2 (in words)
1,"c1ncc(CN2CCC3(CCCCC3)CC2)[nH]1 [Compound 7, 3-((1H-imidazol-4-yl)methyl)-3-azaspiro[5.5]undecane]",moderate inhibition
2,"c1c[nH]c(CN2CCC3(CCCCC3)CC2)n1 [Compound 8, 3-((1H-imidazol-2-yl)methyl)-3-azaspiro[5.5]undecane]",moderate inhibition

# Same assay, conditions: pH 5.5, read-out: AM2 Remaining Activity After 100 μM inhibition
row,SMILES,remaining activity at 100 µM
1,"Cn1cc(CN2CCC3(CCCCC3)CC2)cn1 [Compound 4, 3-((1-methyl-1H-pyrazol-4-yl)methyl)-3-azaspiro[5,5]undecane]",100%
2,"c1ncc(CN2CCC3(CCCCC3)CC2)[nH]1 [Compound 7, 3-((1H-imidazol-4-yl)methyl)-3-azaspiro[5.5]undecane]",70%
3,"C1CCC2(CC1)CCN(CC1CC1)CC2 [Compound 1, 3-(cyclopropylmethyl)-3-azaspiro[5,5]undecane]",100%
4,"CCC1(C)CCNCC1 [Compound 20, 4-ethyl-4-methylpiperidinium chloride]",87%
5,"c1ccc(CN2CCC3(CCCCC3)CC2)nc1 [Compound 6, 3-(pyridin-2-ylmethyl)-3-azaspiro[5,5]undecane]",100%
6,"C1CCC2(CC1)CCN(C1=NCCN1)CC2 [BL-1743, 3-(4,5-dihydro-1H-imidazol-2-yl)-3-azaspiro[5,5]undecane hydroiodide, reference compound]",25%
7,"c1c[nH]c(CN2CCC3(CCCCC3)CC2)n1 [Compound 8, 3-((1H-imidazol-2-yl)methyl)-3-azaspiro[5.5]undecane]",49%
8,"Cc1cc(CN2CCC3(CCCCC3)CC2)no1 [Compound 5, 3-(3-azaspiro[5,5]undecan-3-ylmethyl)-5-methylisoxazole]",100%
9,"CC1(C)CCNCC1 [Compound 19, 4,4-dimethylpiperidinium chloride]",75%
10,"c1cc(CN2CCC3(CCCCC3)CC2)cs1 [Compound 3, 3-(thiophen-3-ylmethyl)-3-azaspiro[5,5]undecane]",90%
11,"C1CCC2(CC1)CCN(CC1CCCC1)CC2 [Compound 2, 3-(cyclopentylmethyl)-3-azaspiro[5,5]undecane]",100%
